Test results from article PMC4579270, “Identification and Characterization of an Irreversible Inhibitor of CDK2” (Chemistry & Biology, 2015).
Entries after “also recorded” stand apart in the source; their conditions may differ.

Key:
[1] = target: T1, CDK2^K89V/cyclin A (Homo sapiens, UniProt P24941, K89V); assay: Bandshift kinase assay after incubation and dialysis, mutant; type: biochemical
T1 construct: GST (N, cleaved yes); made in house; host or cells: Escherichia coli; phosphorylated in vitro by GST-CAK
Experimental: The bandshift experiment was repeated after incubating CDK2^K88E/cyclin A and CDK2^K89V/cyclin A with NU6300, NU6310, or DMSO followed by dialysis to remove unbound inhibitor (Figure S2G).
Figure S2, Related to Figure 3. Identification of the site of CDK2 modification by NU6300. (A-G) Single site CDK2 mutants CDK2D86A, CDK2K88E, and CDK2K89V identify the site of CDK2 modification by NU6300. These mutations change the CDK2 sequence to that of CDK7 and are known not to disrupt the CDK2 fold. Mass spectra of CDK2 mutants: […]
(G) Protein kinase activity of authentic CDK2 and single site CDK2 mutants following incubation with NU6300 or NU6310. Samples were taken at the indicated number of minutes after initiation of the reaction. Note that compared to authentic CDK2, the single site Lys88 and Lys89 mutants have a slower rate of reaction (Compare LHS panels). This drop in activity was expected because whereas the wild type protein was produced by co-expression with S. cerevisiae […]
the mutant proteins were activated by S. cerevisiae CAK1 phosphorylation in vitro– a relatively inefficient process as judged from the results of ESI-MS (Table S1). (H) NU6300 […]
NU6300 carbon atoms are coloured green. Rb, retinoblastoma protein, Phospho-Rb, […]
Protein expression and purification
Site-directed mutagenesis of CDK2 was performed using the QuikChange II kit (Stratagene) following the manufacturer’s instructions and verified by DNA sequencing.
Wild-type CDK2 phosphorylated at Thr160, untagged human cyclin A2 (residues 174-432), S. cerevisiae GST–CAK, GST–3C-protease and GST–pRb (residues 792–928) were expressed and purified as previously described (Brown et al., 1999a; Brown et al., 1999b; Welburn and Endicott, 2005). […]
(§1) CDK2/cyclin A (200 µM) was incubated overnight with 1 mM inhibitor or DMSO, and then dialysed for 8 h with regular replacement of dialysis buffer into HEPES-buffered saline (50 mM HEPES, pH 7.5, 250 mM NaCl, 0.02% MTG). […] Reactions were stopped by addition of SDS-PAGE loading buffer and analyzed by SDS-PAGE. […]

[2] = target: CDK2-Cyclin A (Homo sapiens, UniProt P24941); assay: Kinase assay against GST-Rb after overnight incubation and dialysis; type: biochemical; design: made in house; host or cells: Escherichia coli (CDK2 co-expressed with S. cerevisiae CAK1); details: wild-type CDK2/cyclin A, overnight with 1 mM inhibitor, dialysed 8 h
Experimental: To confirm the results of the ESI-MS and SPR analysis, CDK2/cyclin A was incubated with either NU6300 or NU6310, then the samples and appropriate controls were dialyzed. The resulting CDK2/cyclin A activity was analyzed in an in vitro kinase assay against a C-terminal fragment of the retinoblastoma protein Rb. After an overnight incubation in the presence of NU6300, CDK2 activity was not recovered after dialysis (Figure 2C). […] The activity of NU6300 was also characterized in an alternative kinase assay format (ADP-Glo;^, Promega) in which covalent inhibition of CDK2/cyclin A was allowed to proceed in a pre-incubation phase and was assessed in a subsequent activity assay, where enzyme and inhibitor were diluted such that the inhibitor was present at 20-fold below its IC50 value. The samples and appropriate controls were incubated for 0, 10, 30, 60, and 120 min, prior to addition of ATP and peptide substrate (sequence HHASPRK, single-letter amino acid code), to initiate the kinase reaction. […]
as §1

Row | Compound | CDK2 activity against Rb after incubation with inhibitor and dialysis [1] | CDK2 activity against Rb after incubation with inhibitor and dialysis [2]
1 | CCS(=O)(=O)c1ccc(Nc2nc(OCC3CCCCC3)c3nc[nH]c3n2)cc1 [NU6310, 6-(cyclohexylmethoxy)-N-(4-(ethylsulfonyl)phenyl)-9H-purin-2-amine] | recovered their activity | could phosphorylate Rb; also recorded: recovered their activity
2 | C=CS(=O)(=O)c1ccc(Nc2nc(OCC3CCCCC3)c3nc[nH]c3n2)cc1 [NU6300, 6-(cyclohexylmethoxy)-N-(4-(vinylsulfonyl)phenyl)-9H-purin-2-amine] | recovered activity | not recovered; also recorded: did not
